IC50 data for three compounds are collected here from ChEMBL document CHEMBL5344407, “Histone deacetylases (HDACs) as the promising immunotherapeutic targets for hematologic cancer treatment” (Eur J Med Chem, 2023).

Experiment [1] deals with T1, Histone deacetylase 8 (Homo sapiens, UniProt Q9BY41).
T1 sequence (Q9BY41 whole entry): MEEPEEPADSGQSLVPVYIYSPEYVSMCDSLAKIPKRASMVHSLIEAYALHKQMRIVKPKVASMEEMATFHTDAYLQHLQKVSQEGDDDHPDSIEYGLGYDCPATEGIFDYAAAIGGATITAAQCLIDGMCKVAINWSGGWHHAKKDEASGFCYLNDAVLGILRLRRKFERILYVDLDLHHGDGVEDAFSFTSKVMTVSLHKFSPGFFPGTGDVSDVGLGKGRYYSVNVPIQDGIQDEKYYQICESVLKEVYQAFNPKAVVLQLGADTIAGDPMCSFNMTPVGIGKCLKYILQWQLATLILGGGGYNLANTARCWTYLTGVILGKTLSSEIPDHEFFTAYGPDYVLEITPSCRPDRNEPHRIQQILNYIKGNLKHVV
As to the kind of experiment: Inhibition of N-terminal GST-tagged full length human HDAC8 expressed in baculovirus system using FTS as substrate preincubated for 10 mins followed by substrate addition and measured after 2 hrs by fluorescence based analysis.

Experiment [2] addresses T2, Histone deacetylase 1 (Homo sapiens, UniProt Q13547). The experiment can be described thus: Inhibition of N-terminal GST-tagged full length human HDAC1 expressed in baculovirus system using FTS as substrate preincubated for 10 mins followed by substrate addition and measured after 2 hrs by fluorescence based analysis.
Experiment [3] addresses T3, Histone deacetylase 3 (Homo sapiens, UniProt O15379). The experiment can be described thus: Inhibition of N-terminal GST-tagged full length human HDAC3 expressed in baculovirus system using FTS as substrate preincubated for 10 mins followed by substrate addition and measured after 2 hrs by fluorescence based analysis.
Experiment [4] deals with T4, Histone deacetylase 2 (Homo sapiens, UniProt Q92769). The experiment can be described thus: Inhibition of N-terminal GST-tagged full length human HDAC2 expressed in baculovirus system using FTS as substrate preincubated for 10 mins followed by substrate addition and measured after 2 hrs by fluorescence based analysis.
Experiment [5] concerns the target T5, Protein deacetylase HDAC6 (Homo sapiens, UniProt Q9UBN7).
T5 sequence (Q9UBN7 whole entry): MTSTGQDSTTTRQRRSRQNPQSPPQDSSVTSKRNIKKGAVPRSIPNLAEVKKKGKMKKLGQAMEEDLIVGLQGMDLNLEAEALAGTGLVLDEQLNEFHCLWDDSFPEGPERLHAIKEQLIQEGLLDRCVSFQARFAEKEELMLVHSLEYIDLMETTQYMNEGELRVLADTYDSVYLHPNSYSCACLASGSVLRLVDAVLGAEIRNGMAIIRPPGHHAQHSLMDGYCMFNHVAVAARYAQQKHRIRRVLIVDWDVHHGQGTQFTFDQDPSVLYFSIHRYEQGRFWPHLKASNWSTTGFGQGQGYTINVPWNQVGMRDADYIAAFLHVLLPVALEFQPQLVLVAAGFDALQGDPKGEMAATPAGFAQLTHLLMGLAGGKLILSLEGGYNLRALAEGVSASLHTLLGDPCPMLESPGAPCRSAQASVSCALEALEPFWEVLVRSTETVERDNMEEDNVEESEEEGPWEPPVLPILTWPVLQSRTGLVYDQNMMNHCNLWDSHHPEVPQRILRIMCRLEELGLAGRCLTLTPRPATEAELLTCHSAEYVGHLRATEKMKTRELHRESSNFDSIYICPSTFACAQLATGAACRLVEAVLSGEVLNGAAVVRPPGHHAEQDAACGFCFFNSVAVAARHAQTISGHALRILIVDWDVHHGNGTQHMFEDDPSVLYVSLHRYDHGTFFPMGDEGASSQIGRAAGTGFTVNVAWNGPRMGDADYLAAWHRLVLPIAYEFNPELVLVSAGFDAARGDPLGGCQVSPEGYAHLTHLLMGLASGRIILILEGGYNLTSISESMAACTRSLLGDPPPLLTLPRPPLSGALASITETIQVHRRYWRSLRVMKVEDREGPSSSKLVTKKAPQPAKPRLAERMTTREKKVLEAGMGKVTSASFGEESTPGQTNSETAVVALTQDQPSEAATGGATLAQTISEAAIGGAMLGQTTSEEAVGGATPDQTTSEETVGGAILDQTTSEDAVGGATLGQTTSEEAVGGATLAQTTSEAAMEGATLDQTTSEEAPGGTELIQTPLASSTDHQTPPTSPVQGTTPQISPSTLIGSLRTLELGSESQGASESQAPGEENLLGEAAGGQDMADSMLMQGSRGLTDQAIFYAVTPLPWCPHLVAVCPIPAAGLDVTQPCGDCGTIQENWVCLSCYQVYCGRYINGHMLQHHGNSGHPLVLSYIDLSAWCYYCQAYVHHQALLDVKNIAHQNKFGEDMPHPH
As to the kind of experiment: Inhibition of N-terminal GST-tagged full length human HDAC6 expressed in baculovirus system using FTS as substrate preincubated for 10 mins followed by substrate addition and measured after 2 hrs by fluorescence based analysis.

Experiment [6] deals with T4, Histone deacetylase 2. As to the kind of experiment: Inhibition of human full length recombinant HDAC2 expressed in baculovirus infected Sf9 cells using RHKKAc as substrate preincubated for 10 mins followed by substrate addition and measured after 2 hrs by fluorescence based analysis.
Experiment [7] addresses T3, Histone deacetylase 3. The experiment can be described thus: Inhibition of recombinant full length human HDAC3 expressed in insect Sf9 cells.
Experiment [8] addresses T2, Histone deacetylase 1. The experiment can be described thus: Inhibition of human recombinant HDAC1 using ZMAL (Z-(Ac)Lys-AMC) as fluorogenic substrate preincubated for 5 mins followed by substrate addition and measured after 1 hr by fluorescence based analysis.
Experiment [9] has as its target T6, Histone deacetylase 11 (Homo sapiens, UniProt Q96DB2).
T6 sequence (Q96DB2 whole entry): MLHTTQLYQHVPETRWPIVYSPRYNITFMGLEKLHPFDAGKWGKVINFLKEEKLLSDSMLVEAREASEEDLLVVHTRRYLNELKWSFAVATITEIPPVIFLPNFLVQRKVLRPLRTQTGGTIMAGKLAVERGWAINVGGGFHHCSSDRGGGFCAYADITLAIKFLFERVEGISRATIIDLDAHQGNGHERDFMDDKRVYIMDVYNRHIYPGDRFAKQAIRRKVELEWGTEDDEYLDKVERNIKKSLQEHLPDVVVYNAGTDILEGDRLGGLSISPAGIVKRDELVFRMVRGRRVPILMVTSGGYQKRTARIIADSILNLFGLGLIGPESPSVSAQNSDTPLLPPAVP
The experiment can be described thus: Inhibition of HDAC11 (unknown origin).

In experiment [10] the target is T7, Polyamine deacetylase HDAC10 (Homo sapiens, UniProt Q969S8).
T7 sequence (Q969S8 whole entry): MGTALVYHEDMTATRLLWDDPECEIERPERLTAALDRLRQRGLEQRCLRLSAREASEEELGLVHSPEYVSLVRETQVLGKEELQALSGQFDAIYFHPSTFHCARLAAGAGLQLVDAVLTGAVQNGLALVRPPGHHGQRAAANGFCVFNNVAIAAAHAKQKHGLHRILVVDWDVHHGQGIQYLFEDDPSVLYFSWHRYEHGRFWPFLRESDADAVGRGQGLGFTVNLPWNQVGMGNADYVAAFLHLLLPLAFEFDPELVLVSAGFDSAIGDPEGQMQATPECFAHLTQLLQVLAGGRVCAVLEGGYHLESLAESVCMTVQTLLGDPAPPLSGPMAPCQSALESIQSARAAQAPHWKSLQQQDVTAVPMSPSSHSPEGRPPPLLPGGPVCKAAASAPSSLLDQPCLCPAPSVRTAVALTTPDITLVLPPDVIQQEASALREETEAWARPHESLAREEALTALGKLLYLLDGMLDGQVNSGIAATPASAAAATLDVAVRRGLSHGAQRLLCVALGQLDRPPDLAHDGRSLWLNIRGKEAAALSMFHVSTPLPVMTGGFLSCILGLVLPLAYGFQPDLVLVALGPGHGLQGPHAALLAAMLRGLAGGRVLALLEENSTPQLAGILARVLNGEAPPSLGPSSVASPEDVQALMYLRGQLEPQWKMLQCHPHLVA
As to the kind of experiment: Inhibition of HDAC10 (unknown origin).

T3 sequence (O15379 whole entry): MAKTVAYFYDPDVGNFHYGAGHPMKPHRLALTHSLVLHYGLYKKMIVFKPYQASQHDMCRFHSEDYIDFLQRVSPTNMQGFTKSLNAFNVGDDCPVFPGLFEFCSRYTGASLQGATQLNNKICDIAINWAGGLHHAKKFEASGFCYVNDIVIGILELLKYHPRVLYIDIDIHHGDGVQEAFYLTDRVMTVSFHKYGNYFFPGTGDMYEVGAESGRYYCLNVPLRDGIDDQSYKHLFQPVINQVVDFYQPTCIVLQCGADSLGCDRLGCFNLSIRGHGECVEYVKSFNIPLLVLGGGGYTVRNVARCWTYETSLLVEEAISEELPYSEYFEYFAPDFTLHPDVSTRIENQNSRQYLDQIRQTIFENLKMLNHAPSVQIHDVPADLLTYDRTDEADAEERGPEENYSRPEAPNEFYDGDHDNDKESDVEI
T4 sequence (Q92769 whole entry): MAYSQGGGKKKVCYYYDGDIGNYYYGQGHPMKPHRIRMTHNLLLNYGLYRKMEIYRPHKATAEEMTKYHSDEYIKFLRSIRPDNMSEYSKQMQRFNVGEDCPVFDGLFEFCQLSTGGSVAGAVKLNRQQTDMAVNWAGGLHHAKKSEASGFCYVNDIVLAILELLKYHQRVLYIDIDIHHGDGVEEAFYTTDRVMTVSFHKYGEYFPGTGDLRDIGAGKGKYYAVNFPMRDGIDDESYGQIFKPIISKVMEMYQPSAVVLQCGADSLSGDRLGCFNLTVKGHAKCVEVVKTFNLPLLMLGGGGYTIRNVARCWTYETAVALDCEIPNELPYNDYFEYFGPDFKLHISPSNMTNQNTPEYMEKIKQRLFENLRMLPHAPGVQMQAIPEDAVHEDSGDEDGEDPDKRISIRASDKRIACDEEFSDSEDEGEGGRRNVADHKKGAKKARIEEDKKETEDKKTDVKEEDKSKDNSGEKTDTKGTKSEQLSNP
T2 sequence (Q13547 whole entry): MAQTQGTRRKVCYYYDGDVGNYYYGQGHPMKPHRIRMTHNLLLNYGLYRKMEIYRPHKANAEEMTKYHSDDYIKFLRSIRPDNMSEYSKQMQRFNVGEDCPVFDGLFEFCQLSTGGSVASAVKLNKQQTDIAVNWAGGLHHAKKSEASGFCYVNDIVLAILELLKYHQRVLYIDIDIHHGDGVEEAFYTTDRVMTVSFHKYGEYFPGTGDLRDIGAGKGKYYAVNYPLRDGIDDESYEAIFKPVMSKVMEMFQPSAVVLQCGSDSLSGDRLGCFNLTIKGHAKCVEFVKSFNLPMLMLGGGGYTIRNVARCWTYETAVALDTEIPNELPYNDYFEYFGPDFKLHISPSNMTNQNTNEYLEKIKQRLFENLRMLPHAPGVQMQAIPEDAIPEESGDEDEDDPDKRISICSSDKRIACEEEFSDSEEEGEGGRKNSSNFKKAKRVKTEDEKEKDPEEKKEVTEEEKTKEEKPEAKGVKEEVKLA

On to `O=C(CCCCCCC(=O)N/N=C/c1ccc(N(c2ccccc2)c2ccccc2)cc1)NO`, for which the IC50 in experiment [1] stood at 1.43 µM; in experiment [2] it was 0.00835 µM; in experiment [3] it was 0.0516 µM; in [4], 0.0154 µM; in [5], 0.0004 µM.
With `CC(C)[C@H](N)C(=O)SCC/C=C/[C@@H]1CC(=O)NCc2nc(cs2)C(=O)NC(C)(C)C(=O)N[C@@H](C(C)C)C(=O)O1` [BOCODEPSIN BESYLATE], the results for the IC50 in [6], in experiment [7] and in experiment [8] were 0.0024 µM, 0.002 µM and 0.0012 µM, respectively.
As to `Nc1cc(F)ccc1NC(=O)c1ccc(CNC(=O)/C=C/c2cccnc2)cc1` [TUCIDINOSTAT], the figures for the IC50 in experiment [9] and in experiment [10] were 0.432 µM and 0.078 µM, respectively.

As a reminder, the IC50 is the midpoint of a concentration-inhibition curve.
